The values that follow come from ChEMBL document CHEMBL1147522, “1,2,3,4-tetrahydrocarbazoles as 5-HT6 serotonin receptor ligands” (Bioorg Med Chem Lett, 2004).

5-hydroxytryptamine receptor 6, sequence (P50406 whole entry): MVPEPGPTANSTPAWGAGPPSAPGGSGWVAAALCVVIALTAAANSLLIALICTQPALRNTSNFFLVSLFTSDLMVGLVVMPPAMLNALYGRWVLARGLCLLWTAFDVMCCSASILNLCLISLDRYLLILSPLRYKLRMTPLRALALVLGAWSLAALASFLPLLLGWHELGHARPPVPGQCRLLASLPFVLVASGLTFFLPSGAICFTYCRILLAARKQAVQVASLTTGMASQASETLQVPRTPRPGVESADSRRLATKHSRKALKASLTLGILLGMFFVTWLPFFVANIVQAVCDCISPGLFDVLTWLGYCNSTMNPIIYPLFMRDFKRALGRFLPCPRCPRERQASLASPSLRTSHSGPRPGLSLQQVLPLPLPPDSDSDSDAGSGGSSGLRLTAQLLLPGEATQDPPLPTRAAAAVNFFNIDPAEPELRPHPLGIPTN

The assay addresses 5-hydroxytryptamine receptor 6 (Homo sapiens, UniProt P50406). Put plainly: Ability to displace [3H]LSD from human 5-hydroxytryptamine 6 receptor transiently expressed in COS-7 cells. The format is cell-based.
In the case of `COc1ccc2c(c1)c1c(n2S(=O)(=O)c2ccc(N)cc2)CCCC1`, the Ki came to 0.029 µM.
Under `COc1ccc2c(c1)c1c(n2S(=O)(=O)c2ccc(N)cc2)CCCC1CN(C)C` (stereo unspecified) stands 0.002 µM; under `COc1ccc2c(c1)c1c(n2S(=O)(=O)c2ccc3ccccc3c2)CCCC1CN(C)C` (stereo unspecified), 0.0051 µM; under `COc1ccc2c(c1)c1c(n2C(=O)c2ccc(N)cc2)CCCC1`, 6 µM.
The same measure for `COc1ccc2c(c1)c1c(n2S(=O)(=O)c2ccc(C)cc2)CCCC1CN(C)C` (stereo unspecified): 0.0094 µM; for `Nc1ccc(S(=O)(=O)n2c3ccccc3c3ccccc32)cc1`: 0.049 µM; for `COc1ccc(OC)c(S(=O)(=O)n2c3c(c4cc(OC)ccc42)C(CN(C)C)CCC3)c1` (stereo unspecified): 0.0003 µM.
The same measure for `COc1ccc2c(c1)c1c(n2S(=O)(=O)c2ccc(I)cc2)CCCC1CN(C)C` (stereo unspecified): 0.0024 µM; for `COc1ccc2c(c1)c1c(n2S(=O)(=O)Cc2ccccc2)CCCC1CN(C)C` (stereo unspecified): 0.2 µM; for `COc1ccc(S(=O)(=O)n2c3c(c4cc(OC)ccc42)C(CN(C)C)CCC3)cc1` (stereo unspecified): 0.047 µM.
Compound `COc1ccc2c(c1)c1c(n2S(=O)(=O)c2ccc(Cl)cc2)CCCC1CN(C)C` (stereo unspecified) yielded a Ki of 0.005 µM.
`COc1ccc2c(c1)c1c(n2Cc2ccc(N)cc2)CCCC1` registered a Ki of 6 µM.
The same measure for `COc1ccc2c(c1)c1c(n2S(=O)(=O)c2cccc3cccnc23)CCCC1CN(C)C` (stereo unspecified): 0.0076 µM.
The compound `COc1ccc2c(c1)c1c(n2S(=O)(=O)c2cccc3ccccc23)CCCC1CN(C)C` (stereo unspecified) came in with a Ki of 0.014 µM.
The same measure for `CN(C)CC1CCCc2c1c1ccccc1n2Cc1ccccc1` (stereo unspecified): 0.064 µM; for `COc1ccc2c(c1)c1c(n2S(=O)(=O)c2ccccc2)CCCC1CN(C)C` (stereo unspecified): 0.0023 µM.

Broadly, the Ki is the dissociation constant of the complex between target and ligand, obtained from inhibition or displacement. High values mean weaker binding, low ones tighter binding.
